# Reference: patent US5990326A, “3-oxiranyl benzoic acids and derivatives thereof” (G.D. Searle & Co., priority 1992, dated 1999)
# Structures can show the parent of a compound that is named as a salt.
# Tests used:
# [1] = test system: A23187-Induced LTB4 Production in Human Promyelocytic Leukemia HL-60 Cells; experiment: A23187-Induced LTB4 Production in Human Promyelocytic Leukemia HL-60 Cells (HL-60 Cell Assay); assay type: cell-based; set-up: key to HL-60 Cell Assay % Inhibition: I: inactive at that concentration; conditions: for IC50: A23187-stimulated HL-60 cells, LTB4
# Source text: A23187-Induced LTB4 Production in Human Promyelocytic Leukemia HL-60 Cells.
# Materials: Calcium ionophore A23187 was obtained from Calbiochem (La Jolla, Calif.). Trans-stilbene oxide was obtained from Sigma (St. Louis, Mis.). Hanks' balanced salt solution (HBSS) (10× concentrate), 1M Hepes, and Dulbecco's modified Eagle medium were obtained from GIBCO Laboratories (Grand Island, N.Y.). Fetal bovine serum was obtained from HyClone Laboratories (Logan, Utah). The LTB4 and PGE2 radioimmunoassay antibodies were purchased from Amersham International plc (Amersham, UK) and NEN Research Products (N. Billerica, Mass.), respectively. Reagents for assay of lactate dehydrogenase (LDH) activity were purchased from Beckman (Carlsbad, Calif.).
# Preparation of HL-60 Cells: HL-60 cells were cultured in Dulbecco's modified Eagle medium (supplemented with 20% fetal bovine serum, 20 mM Hepes, 100 U/ml penicillin and 100 mcg/ml streptomycin) and maintained at 37° C. in a humidified atmosphere of 5% CO2 in air. Cells from exponentially growing cultures were seeded at 3×10^5 cells/ml and induced to differentiate into granulocytes wth 0.8% (v/v) N,N-dimethylformamide for 4 days (1,2). Prior to assay, differentiated HL-60 cells were washed once with Hanks' balanced salt solution containing 0.35 mg/ml sodium bicarbonate and 10 mM Hepes, pH 7.3 (HBSS) and resuspended in HBSS at a concentration of 3×10^6 cells/ml. HL-60 cell viability was >95% as assessed by trypan blue exclusion.
# HL-60 Cell Assay: DMSO or test compounds as 100× concentrates in DMSO were added in duplicate to 1.0 ml HL-60 cell suspensions (3×10^6cells) and preincubated at 37° C. for 10 minutes in a shaking water bath. After an additional 5 minute incubation with calcium ionophore A23187 (10 mcl @ 5×10^-4 M in DMSO), the cells were pelleted at 12,800×g for 15 seconds and the supernatant removed and stored at -20° C. for quantification of LTB4 or PGE2 via radioimmunoassay and LDH activity.
# Statistical Methods: LTB4 and PGE2 data were expressed as percent inhibition of A23187-stimulated controls. For IC50 determinations, the 4 parameter logistic model was used where y is the percent inhibition response and x is the log10 concentration of the inhibitor: [formula] Nonlinear regression was performed using the SAS (3) procedure NLIN to obtain least squares estimates of the four parameters in the above equation: yx (maximum), Y0 (minimum), a (log10 IC50) and b (slope factor). Increases in mean LDH levels for A23187-stimulated cells in the presence of test compound were tested for significance using a one-tailed two sample Student's t-test.
# LTA4 hydrolase = biological target: T1, LTA4 hydrolase (Rattus norvegicus, UniProt P30349); experiment: Leukotriene-A4 (LTA4) Hydrolase Enzyme Assay (inhibition of LTB4 production by rat neutrophil cytosol, RIA); assay type: biochemical, rat (male Sprague Dawley); conditions: for inhibition at 100 µM: 10^-4 M; for IC50: rat neutrophil cytosolic LTA4 hydrolase
# T1 construct: the supernatant containing cytosolic LTA4 hydrolase was obtained; from tissue; host or cells: peritoneal neutrophils (90-95% pure, oyster-glycogen elicited) of male Sprague Dawley rats; 100,000 x G supernatant of the homogenate
# T1 sequence (P30349 1-611): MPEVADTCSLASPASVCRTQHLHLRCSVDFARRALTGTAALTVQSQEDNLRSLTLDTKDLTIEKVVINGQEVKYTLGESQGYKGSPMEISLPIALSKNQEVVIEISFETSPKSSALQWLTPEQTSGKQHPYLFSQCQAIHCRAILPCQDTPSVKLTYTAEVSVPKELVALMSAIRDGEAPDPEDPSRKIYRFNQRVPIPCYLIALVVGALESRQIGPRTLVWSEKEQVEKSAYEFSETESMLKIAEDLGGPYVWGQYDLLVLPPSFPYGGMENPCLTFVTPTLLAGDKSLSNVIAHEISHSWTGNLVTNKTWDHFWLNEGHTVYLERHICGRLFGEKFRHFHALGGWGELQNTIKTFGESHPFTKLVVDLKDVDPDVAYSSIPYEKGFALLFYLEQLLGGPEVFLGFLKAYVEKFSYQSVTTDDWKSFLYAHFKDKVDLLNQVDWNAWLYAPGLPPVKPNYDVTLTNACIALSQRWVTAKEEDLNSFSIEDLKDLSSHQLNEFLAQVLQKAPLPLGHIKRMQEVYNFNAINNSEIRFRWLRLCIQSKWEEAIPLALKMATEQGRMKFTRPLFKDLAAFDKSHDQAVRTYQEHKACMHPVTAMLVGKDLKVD
# Source text: Leukotriene --A4 Hydrolase Inhibition Materials
# Leukotriene-A4 -methyl ester and leukotriene-A3 were purchased from Biomol (Cambridge). Trans-stilbene oxide, EDTA, phenylmethyl sulphonyl fluoride were purchased from Sigma (St. Louis). Eagles Basil Media was purchased from GIBCO (Grand Island). LTB4 radioimmunoassay kit was purchased from Amersham (Arlington Heights, Ill.) (#Trk. 840).
# Methods were modified from those reported by Evans et al., Biochem. Biophys. Acta, 840:43-50 (1985).
# Male Sprague Dawley (CD1) rats (250-400 gm bodyweight) were given oyster glycogen, 1 mg/ml in 0.9% NaCl, by intraperitoneal injection. The animals were sacrificed after 8-20 hours and the peritoneal cavity washed with 10 ml Eagles Basil Medium (pH 7.4, 25 mM HEPES, without glutamine). The collected peritoneal lavage fluid was centrifuged at 150×G, 15 minutes at 4° C. to isolate the neutrophils. The supernatant was removed and the cell pellet was resuspended in 20 cc 10 mM sodium phosphate buffer, pH 7.0 with 2 mM Na-EDTA and 1 mM phenylmethyl sulphonyl fluoride (PMSF).
# Leukotriene-A4 Hydrolase Isolation
# The cell suspensions, which were 90-95% neutrophils as determined by cytometry, were homogenized by a polytron at 4° C. with three 30 second bursts with cooling on ice in between. The homogenate was centrifuged at 100,000×G for 60 minutes, and the supernatant containing cytosolic LTA4 hydrolase was obtained.
# LTA4 Methyl Ester Deesterificaiton
# LTA4, the substrate for LTA4 hydrolase, is supplied as the stable methyl ester that must be hydrolized to the active form. LTA4 -methyl ester (5000 ng) was dried under a stream of super-dry Argon (Matheson) to which was added a 1 ml methanol: 10M NaOH (9.8:0.2 v/v). The mixture was stirred 3 hours at 4° C. and used immediately.
# LTA4 Hydrolase Enzyme Assay
# Supernatant containing LTA4 hydrolase, 0.5 ml, was added to 0.5 ml Tris-acetate buffer, pH 7.8, containing 1 mg/ml fatty-acid free BSA. The mixture was incubated 3 minutes at 37° C. with 0.1 ml containing different enzyme inhibitor and test compound concentrations in DMSO. LTA4, 25 ng in 20 μl methanol, was added and incubation with shaking continued at 37° C. for one minute. The reaction was quenched with 2 ml ice-cold ethanol. The quenched mixture was immediately frozen at -76° C. LTB4 levels were determined by radioimmunoassay (RIA) with a validated commercial kit. Various concentrations of potential enzyme inhibitors were evaluated for inhibition of LTB4 production using a standardized amount of enzyme and substrate. The amount of inhibitor necessary to reduce LTB4 production by fifty percent was calculated as the IC50 value for each inhibitor. IC50 values were determined by least square linear regression analysis from the average ±SEM for 4 experiments.
SMILES,inhibition at 100 µM (LTA4 hydrolase) [%],IC50 (LTA4 hydrolase) [µM],IC50 ([1]; Homo sapiens) [µM],HL-60 Cell Assay % Inhibition ([1]; 10^-5 M),"inhibition at 100 µM ([1]; Homo sapiens, HL-60, 10^-4 M) [%]","inhibition at 10 µM ([1]; Homo sapiens, HL-60, 10^-5 M) [%]","inhibition at 1 µM ([1]; Homo sapiens, HL-60, 10^-6 M) [%]",HL-60 Cell Assay % Inhibition ([1]; 10^-6 M),"inhibition at 50 µM ([1]; Homo sapiens, HL-60, 5 × 10^-5 M) [%]",HL-60 Cell Assay % Inhibition ([1]; 10^-4 M)
"CCCCCCCCCC/C=C/C=C/C1OC1c1cccc(C(=O)OC)c1 (centres unmarked) [Example 4, Methyl 3-[3-(1E,3E-tetradecadienyl)oxiranyl]benzoate]",,,,I,29,,,,,
"CCCCCCCCCCCC/C=C/C1OC1c1cccc(C(=O)O)c1 (centres unmarked) [Example 1,Li^+ salt]",40,,2.8,,94,96,26,,,
"CCCCCCCCCCCC/C=C/C1OC1c1cccc(C(=O)OC)c1 (centres unmarked) [Example 1, Methyl 3-[3-(1E-tetradecenyl)oxiranyl]benzoate]",,,,,,,,,,I

# The next lines start with results.
inhibition at 100 µM (LTA4 hydrolase) [%],IC50 (LTA4 hydrolase) [µM],IC50 ([1]; Homo sapiens) [µM],SMILES,HL-60 Cell Assay % Inhibition ([1]; 10^-5 M),"inhibition at 100 µM ([1]; Homo sapiens, HL-60, 10^-4 M) [%]","inhibition at 10 µM ([1]; Homo sapiens, HL-60, 10^-5 M) [%]","inhibition at 1 µM ([1]; Homo sapiens, HL-60, 10^-6 M) [%]",HL-60 Cell Assay % Inhibition ([1]; 10^-6 M),"inhibition at 50 µM ([1]; Homo sapiens, HL-60, 5 × 10^-5 M) [%]",HL-60 Cell Assay % Inhibition ([1]; 10^-4 M)
58,80,0.16,"CCCCCCCCCC/C=C/C=C/C1OC1c1cccc(C(=O)O)c1 (centres unmarked) [Example 4,Li^+ salt]",,88,89,77,,,
20,,,"CCCCCCCCCCCCCC[C@@H]1O[C@H]1c1cccc(C(=O)OC)c1 (relative stereo) [Example 22, Methyl 3-(3-tetradecyloxiranyl)benzoate]",I,79,,,,,
85,2,15,"CCCCCCCC/C=C/C=C/C=C/C1OC1c1cccc(C(=O)O)c1 (centres unmarked) [Example 7,Li^+ salt]",,,61,,I,80,
